Assay results taken from PubChem BioAssay (NCI).
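Method: 48-hour compound exposure of cells in 96-well plates, five concentrations, linear interpolation of endpoints. GI50 marks 50% less growth. The concentration for full growth arrest is given as TGI.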

Assays:
Experiment in all cases: NCI-60 cell line screen, 48 h
[1] = tested on: A498 renal
[2] = tested on: HT29 colon
[3] = tested on: M14 melanoma
[4] = tested on: MOLT-4 leukemia
[5] = tested on: NCI-H23 lung
[6] = tested on: RXF 393 renal
[7] = tested on: SF-539 CNS
[8] = tested on: U251 CNS
[9] = tested on: UO-31 renal
[10] = tested on: OVCAR-5 ovarian

Structure (SMILES) | TGI [1] [µM] | TGI [2] [µM] | TGI [3] [µM] | TGI [4] [µM] | TGI [5] [µM] | TGI [6] [µM] | TGI [7] [µM] | TGI [8] [µM] | TGI [9] [µM] | GI50 [1] [µM] | GI50 [2] [µM] | GI50 [4] [µM] | GI50 [5] [µM] | GI50 [10] [µM] | TGI [10] [µM] | GI50 [6] [µM] | GI50 [7] [µM] | GI50 [8] [µM] | GI50 [9] [µM] | GI50 [3] [µM]
CC(=O)C1C(=O)N(C(C)C)C[C@@H]2CCC(=O)C[C@H]12 (stereo not given in full) | > 100 | > 100 | > 100 | > 100 | > 100 | > 100 | > 100 | > 100 | > 100 | – | – | – | – | – | – | – | – | – | – | –
OCNCCNc1nc2ccccc2c2[nH]c3ccccc3c12 | 4.46 | > 50 | – | > 50 | 2.69 | 5.85 | 0.863 | 1.9 | > 50 | 1.55 | 0.556 | 0.809 | 0.772 | 0.582 | 6.75 | 1.11 | 0.189 | 0.506 | 2.98 | –
O=C1CN(/N=C/c2ccc(-c3ccc(F)cc3)o2)C(=O)N1 | > 100 | – | > 100 | > 100 | > 100 | > 100 | > 100 | > 100 | > 100 | – | – | – | – | – | > 100 | – | – | – | – | –
C/C=C1\C(=O)OC2CCN3CCC(COC(=O)C(C)(O)C(C)C1O)C23 (stereo not given) | > 100 | > 100 | > 100 | > 100 | > 100 | – | > 100 | > 100 | > 100 | – | – | – | – | – | > 100 | – | – | – | – | –
CC1CC2(C)CC(=O)C1C1C(=O)N(CCN3CCCCC3)C(=O)C12 (stereo not given) | > 100 | > 100 | > 100 | > 100 | > 100 | – | > 100 | > 100 | > 100 | > 100 | > 100 | > 100 | > 100 | > 100 | > 100 | – | > 100 | > 100 | > 100 | > 100
CC1(C)CC[C@]2(C(N)=O)CC[C@]3(C)C(=CC[C@@H]4[C@@]5(C)C/C(=C/c6ccncc6)C(=O)C(C)(C)[C@@H]5CC[C@]43C)[C@@H]2C1 | 3.38 | – | 4.62 | 6.02 | 9.62 | 3.05 | 3.34 | 3.27 | 2.91 | 1.7 | – | 2 | 2.89 | 1.61 | 3.16 | 1.59 | 1.81 | 1.69 | 1.48 | 2.05
COc1ccc(OC)c2c3c(ccc12)C(c1ccccc1)OC3=O (stereo not given) | > 100 | > 100 | > 100 | 99.7 | > 100 | > 100 | – | > 100 | > 100 | – | – | – | – | – | > 100 | – | – | – | – | –
CCOC(=O)C(NC(=O)c1[nH]cnc1/N=N/N(C)C)C(C)C (stereo not given) | > 100 | > 100 | > 100 | > 100 | > 100 | – | > 100 | > 100 | > 100 | – | – | – | – | – | > 100 | – | – | – | – | –
CC1=C(C(=O)Nc2ccc(Cl)c(Cl)c2)C(c2ccccc2O)NC(=O)N1 (stereo not given) | – | – | > 50 | > 50 | – | > 50 | > 50 | > 50 | > 50 | – | – | > 50 | – | > 50 | > 50 | > 50 | 43.7 | > 50 | > 50 | > 50
Cc1c(C(=O)CSc2nc3ccccc3[nH]2)c(=O)n(-c2ccccc2)n1C | > 100 | > 100 | > 100 | > 100 | > 100 | – | > 100 | > 100 | > 100 | – | – | – | – | – | > 100 | – | – | – | – | –
CCCCCCCCCCCCOP(N)(=O)OCCCCCCCCCCCC | – | – | > 100 | > 100 | > 100 | > 100 | > 100 | > 100 | > 100 | – | – | – | – | – | – | – | – | – | – | –
COc1nc(NC2OC(COC(C)=O)C(OC(C)=O)C(OC(C)=O)C2OC(C)=O)c(-c2csc(N)n2)c(=O)n1C (stereo not given) | > 100 | > 100 | > 100 | > 100 | > 100 | – | > 100 | > 100 | > 100 | – | – | – | – | – | > 100 | – | – | – | – | –
COc1ccc(CCN=C2CCC(C(=O)NCCc3ccc(OC)c(OC)c3)N2)cc1OC (stereo not given) | > 100 | > 100 | > 100 | > 100 | > 100 | – | – | > 100 | > 100 | – | – | – | – | – | > 100 | – | – | – | – | –
O=C(c1ccc(Cl)cc1)C1OC12C(=O)Nc1ccccc12 (stereo not given) | 36 | 27.5 | 19 | – | 32.9 | 29.6 | 30.6 | 32 | 29.4 | – | – | – | – | – | 36.2 | – | – | – | – | –
CC(=O)OC1CC2C(=O)C(=O)C1(C)C2(C)C (stereo not given) | > 100 | > 100 | > 100 | > 100 | > 100 | – | – | > 100 | > 100 | – | – | – | – | – | > 100 | – | – | – | – | –
COc1cc([N+](=O)[O-])c2ncccc2c1[N+](=O)[O-] | 32 | 5.52 | 15.8 | > 100 | 16.1 | 17.5 | 13.6 | 16.6 | – | 12.3 | 2.28 | 4.92 | 3.91 | 16.4 | 31.1 | 4.37 | 3.61 | 4.45 | – | 4.24
CCCCCCCCCCCCCc1nn[nH]n1 | 32.2 | 33 | 31.5 | – | 44.6 | 43.4 | 32.2 | 32.8 | 29.5 | – | – | – | – | – | 33 | – | – | – | – | –
CCOc1cc(-c2ccc[nH]2)[nH]c1/C=C1\N=C(C)C(C(=O)OC)=C1C | 1.92 | 1.06 | 1.18 | – | 1.92 | 0.0881 | 0.968 | 0.814 | 0.143 | 0.47 | < 0.0123 | – | 0.0876 | 0.0552 | 1.68 | 0.0219 | 0.059 | 0.0319 | 0.0252 | 0.0348
CCC1CNC(=O)CC1CC(=O)OC (stereo not given) | – | – | > 100 | > 100 | > 100 | > 100 | – | > 100 | > 100 | – | – | – | – | – | > 100 | – | – | – | – | –
